ChEMBL document CHEMBL1155707, “New lipopeptides from the Caribbean cyanobacterium Lyngbya majuscula” (J Nat Prod, 2001)

Tests used:
Type in all cases: functional, cell-based
A549 = test: Cytotoxicity against human A549 cells
HT-29 = test: Cytotoxicity against human HT-29 cells
SK-MEL-28 = test: Cytotoxicity against human SK-MEL-28 cells
P388 = test: Cytotoxicity against mouse P388 cells

Measured: IC50

C[C@@H](c1nccs1)N(C)C(=O)[C@H](C[C@H](C)C(Cl)(Cl)Cl)NC(=O)C[C@H](C)C(Cl)(Cl)Cl [PSEUDODYSIDENIN]
> 1 µg/mL: A549 | HT-29 | SK-MEL-28 | P388
